Patent publication US20230080270A1, “NANOPARTICLES ENCAPSULATING SMALL MOLECULES” (ETH ZURICH, priority 2020, published 2023)
“And” between values parts separate entries of the source, which are not always exact repeats. Equal values may be shown once.

What was measured:
HeLa cells [1] = experiment: Flow cytometry of cellular uptake in HeLa cells; format: cell-based, human; conditions: 500 nM Nile Red, population gating based on the PBS control
Experimental: (§1) Cell culture. HeLa cells were maintained in Dulbecco's Modified Eagle Medium (high glucose) supplemented with 10% fetal bovine serum (FBS), 2 mM L-glutamine, 2 mM GlutaMAX and 1 μg/mL gentamicin. Cells were cultured in 5% CO2 at 37° C. and typically split in a 1:4 ratio every 3 days. Only passage numbers between 7-20 were used for all experiments.
Flow cytometry. HeLa cells were seeded at a density of 30,000 cells per well in a 24-well plate in 500 μL of culture medium and allowed to recover at 37° C. and 5% CO2 for 24 hours to reach 60-80% confluency. Both OP protein and surfactant solutions were sterilized by filtration through a 0.22 μm membrane, and stocks were prepared in sterile PBS. Nile Red solution (50 μM) in 1:1 EtOH:H2O was used without sterilization. OP capsid-micelle complexes were prepared as described above. For each well 20 μL of sample in PBS was added to 200 μL of culture media to give the final concentration of 200 nM. Cells were incubated for 16-20 h in 5% CO2 at 37° C. before washing with PBS and trypsinization (0.05% Trypsin-EDTA (Thermo Fisher Scientific, USA), 4 minutes at 37° C.). Cells were collected in cold culture medium and washed twice with cold PBS before resuspension in flow cytometry buffer (PBS with 5% FBS).

[2] = cited from earlier work
[3] = in PBS buffer; cited from earlier work
HeLa cells [4] = experiment: Cell viability assay (WST-8-based Cell Counting Kit-8); set-up: species or system human; conditions: 2.5 μM lapatinib, 18 hour incubation
Experimental: as §1
Cell viability assay. Cytotoxicity was assessed using the WST-8-based Cell Counting Kit-8 from Sigma according to the manufacturer's instructions. HeLa cells were seeded at a density of 5,000 cells per well in a 96-well plate in 100 μL of culture medium and allowed to recover at 37° C. and 5% CO2 for 24 hours. Protein, surfactant and drug samples were prepared by serial dilution in sterile PBS. As a negative control 10 μL of 10% Triton X-100 in PBS were used per well. The positive control was just PBS. […] The plate was then incubated for 2-4 hours at 37° C. and 5% CO2 before measuring absorbance at 450 nm. The absorbance of CKK-8 in culture media, without cells, was used for background subtraction and samples were normalized to untreated cells to provide the values shown in FIG. 4e,f. Samples were measured in sextuplicate with biological replicates of different protein batches.

[5] = Nile Red fluorescence titration (surfactant content and cargo capacity); format: physicochemical; conditions: two equivalents of Nile Red, increasing SDS content
Experimental: Nile Red fluorescence. For a typical fluorimetry experiment, 800 μL samples in PBS buffer were used. For the surfactant loading kinetics the ionic strength was adjusted by dissolving appropriate amounts of NaCl in PBS buffer. Stock solutions of Nile Red in acetone:water (1:1 v/v), or DMSO at concentrations of 50-500 μM were used. The excitation wavelength was set to 535 nm for all experiments.
This number fits with a value of —730 calculated from the volumetric capacity of the OP cavity (˜256 nm^3) and the average volume occupied by an SDS molecule in a micelle (Methods section).
As cargo-carrying is an important characteristic of the protein-micelle complex, the inventors also used fluorescence titration to determine the number of Nile Red molecules that could be accommodated per cage. Single equivalents of Nile Red were added stepwise to a solution of OP:SDS complexes and the fluorescence spectra measured for each addition (FIG. 3d). Between 1-5 molecules of Nile Red per cage, a logarithmic increase in fluorescence emission is observed with each equivalent. From 5-20 molecules of Nile Red a steady decrease in fluorescence is observed, and above 20 a steady increase in fluorescence is observed. We attribute these three distinct stages to: i) Nile Red encapsulation, ii) self-quenching and iii) excess free dye. […]

[6] = Native agarose gel electrophoresis of OP with increasing SDS equivalents; format: physicochemical; conditions: up to 2000 SDS molecules per cage
Text: Native agarose gel electrophoresis.
Cage-templated micelle formation. Sodium dodecyl sulfate (SDS) was chosen as the anionic surfactant (FIG. 2a), due to its aqueous solubility and the potential for favourable hydrogen bond formation between the sulfate headgroup and the many arginine residues on the interior surface of the OP capsid. As SDS is typically used as a protein denaturant, the inventors were curious if charge and shape complementarity of the OP cage could be leveraged to drive formation of a scaffolded micelle, rather than allowing hydrophobic interactions with the protein core to dominate, a pathway that leads to disruption of protein structure. As such, OP was subject to increasing molar equivalents of SDS, up to 2000 molecules per cage, and analyzed by native gel electrophoresis (FIG. 2b).

[7] = Effective concentration / volumetric capacity calculations; conditions: OP cavity ~256 nm^3; SDS micelle radius 17.5 Å, aggregation number 64
Text: Effective concentration calculations. The volume of the OP lumenal cavity (255,528 A) was estimated as a sphere with a radius of 39.4 A. This radius determined by averaging the distances between lumenally exposed residues from the reported crystal structure (Edwardson et al., 2018, op. cit.), using the UCSF Chimera software (Pettersen, E. F. et al. UCSF Chimera—a visualization system for exploratory research and analysis. J. Comput. Chem. 25, 1605-1612 (2004)). The effective concentration of SDS was simply estimated as the number of moles SDS per lumenal cavity volume. The expected number of SDS molecules was estimated by first determining the volume occupied by an individual SDS molecule in a micelle, from the reported average values of SDS micelle radius (17.5 Å) and aggregation number (n=64). Division of the OP cavity volume by the average volume of a single SDS molecule packed into micellar aggregates gives an estimated value of 729 molecules per OP cage, which is within error of the volume estimations and experimental results, which approximate 800 molecules.

In the case of `CCN(CC)c1ccc2nc3c4ccccc4c(=O)cc-3oc2c1` [Nile Red], the “fraction of cells Nile Red positive” value (HeLa cells [1]) is given as 58% and the “solubility limit in organic solvents” value [2] is given as under 5 mM.

In the case of `CCCCCCCCCCCCOS(=O)(=O)[O-].[Na+]` [SDS, Sodium dodecyl sulfate], the critical micelle concentration [3] is listed as 4 to 5 mM.

With `CS(=O)(=O)CCNCc1ccc(-c2ccc3ncnc(Nc4ccc(OCc5cccc(F)c5)c(Cl)c4)c3c2)o1` [lapatinib] the “effect on cell viability” value (HeLa cells [4]) was “negligible effect”.

B1: OP: 24-mer octahedral porous protein cage with positively charged interior, polypeptide SEQ ID NO: 2 (protein)
chain: MSQAIGILELRSIAAGMELGDAMLKSANVDLLVSKTISRGKFLLMLGGDIGAIQQAIETGTSQAGRLLVDSLVLANIHPSVLPAISGLNSVDKRQAVGIVETRSVAACISAADRAVKGSNVTLVRVHMARGIGGKCYMVVAGDVSDVALAVTVASSSAGAYGRLVYASLIPRPHEAMWRQMVEGLEHHHHHH
modifications: 24-mer cage assembly
In the case of B1, the “surfactant molecules per cage at plateau of Nile Red fluorescence” value [5] is reported as about 800 molecules per cage, the “SDS equivalents per protein cage up to which no change to quaternary structure” value [6] is reported as “approximately 800 equivalents of SDS per protein cage” and the “SDS molecules per OP cage calculated from cavity volume and volume of an SDS molecule in a micelle” value [7] is reported as 729 molecules per OP cage and 730 molecules per OP cage.
